According to PMC4156869 (Journal of the American Chemical Society, 2014):

Molecular target: T1, GalK2 (N-acetyl-galactosamine kinase) (Homo sapiens, UniProt Q01415)
T1 sequence (Q01415 1-458): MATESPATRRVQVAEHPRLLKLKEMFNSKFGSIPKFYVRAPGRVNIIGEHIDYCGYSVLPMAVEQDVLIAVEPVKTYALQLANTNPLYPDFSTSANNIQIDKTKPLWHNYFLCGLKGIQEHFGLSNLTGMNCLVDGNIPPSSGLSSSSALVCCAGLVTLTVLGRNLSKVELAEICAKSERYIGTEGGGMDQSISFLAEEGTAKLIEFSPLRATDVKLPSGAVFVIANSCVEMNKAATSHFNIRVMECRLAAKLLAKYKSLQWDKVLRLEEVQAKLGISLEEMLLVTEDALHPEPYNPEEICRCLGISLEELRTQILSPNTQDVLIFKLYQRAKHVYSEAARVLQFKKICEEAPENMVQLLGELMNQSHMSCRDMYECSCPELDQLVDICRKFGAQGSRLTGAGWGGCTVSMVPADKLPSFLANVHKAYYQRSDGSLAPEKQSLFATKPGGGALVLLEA
Assay: […]gamma-ATP phosphorylation, Dowex column, scintillation counting
Type: biochemical
Conditions: 40 mM sugar, 5 mM ATP, 10 mM MgCl2, 50 mM Tris HCl pH 8.0, 37 °C

SMILES	[32P]gamma-ATP phosphorylation, Dowex column, scintillation counting
CC(=O)N[C@H]1C(O)O[C@H](CO)[C@H](O)[C@@H]1O (some centres unmarked) [GalNAc]	GalK2 readily phosphorylated both GalNAc and GlcNAc
CC(=O)N[C@H]1C(O)O[C@H](CO)[C@@H](O)[C@@H]1O (some centres unmarked) [GlcNAc]	GalK2 readily phosphorylated both GalNAc and GlcNAc
